{"source": "patent US20200326330A1", "about": "“Device and method for multidimensional cell culture” (Premas Biotech Pvt Ltd, priority 2019, published 2020)", "key": {"[1]": {"tested_on": "MCF-7 tissueoids", "assay": "Morphology and growth of MCF-7 tissueoids on AXTEX-4D treated with doxorubicin", "assay_type": "cell-based, human", "settings": "3 days"}, "[2]": {"tested_on": "MCF-7 tissueoids", "assay": "Prestoblue viability of MCF-7 tissueoids (3D) on AXTEX-4D"}, "[3]": {"tested_on": "MCF-7 cells", "assay": "Morphology and growth of MCF-7 cells in 2D monolayer culture treated with doxorubicin", "assay_type": "cell-based, human", "settings": "MCF-7 2D monolayer, 3 days"}, "[4]": {"tested_on": "MCF-7 cells", "assay": "Prestoblue viability of MCF-7 2D monolayer culture", "assay_type": "cell-based", "settings": "Homo sapiens, MCF7, 1 μM doxorubicin, 48 hrs, read-out: viability (prestoblue, normalized with vehicle control as 100%)"}}}
{"compound": "COc1cccc2c1C(=O)c1c(O)c3c(c(O)c1C2=O)C[C@@](O)(C(=O)CO)C[C@@H]3O[C@H]1C[C@H](N)[C@H](O)[C@H](C)O1", "note": "[doxorubicin, Doxorubicin]", "values": [{"measurement": "growth of tissueoids", "setting": "[1]; 2.5 μM doxorubicin", "value": "not inhibited"}, {"measurement": "growth of tissueoids", "setting": "[1]; 5 μM doxorubicin", "value": "Partial growth inhibition"}, {"measurement": "tissueoid morphology at higher concentration", "setting": "[1]; higher concentration (5)", "value": "shrinking of the tissueoid was visible"}, {"measurement": "viability at 1 µM", "setting": "[2]; Homo sapiens, MCF7, 48 h, read-out: viability (prestoblue, normalized with vehicle control as 100%)", "value": "~80", "unit": "%"}, {"measurement": "resistance of tissueoids compared to vehicle control", "setting": "[2]; MCF-7 tissueoids, 1 μM doxorubicin", "value": "partial resistance"}, {"measurement": "morphology (vacuoles) in 2D culture", "setting": "[3]; 1 μM doxorubicin", "value": "Vacuoles were observed"}, {"measurement": "growth inhibition in 2D culture", "setting": "[3]; vs DMSO vehicle control", "value": "Dose-dependent growth inhibition"}, {"measurement": "viability at 1 µM", "setting": "[4]", "value": 35, "unit": "%"}]}
